Patent US20150315241A1, “Antibiotic Peptides” (priority 2007, published 2015)
Converted amounts (≈) assume the structure as drawn. Read-outs that look alike come from different tables or passages of the source. Where a SMILES comes first, the peptide text is derived from it. Bridges are numbered along the chain shown (N, C = ends). Roman numbers before positions name the chains, in order. Where no end group is shown, it is not given here. [ ]: non-standard residue; d: D form. Hyp = O=C(O)[C@@H]1C[C@@H](O)CN1; NMeL = CN[C@@H](CC(C)C)C(=O)O; Orn = NCCC[C@H](N)C(=O)O; Dab = NCC[C@H](N)C(=O)O

How the values were obtained:
E. coli 45849 = test: Growth inhibition assay (MIC); format: cell-based, Escherichia coli; conditions: multidrug resistant strain; 1% TSB, 37° C., 20 hrs
Procedure, shortened: (§1)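 Broth microdilution with two-fold peptide series, final 125 μg/mL down to 60 ng/mL, against overnight cultures adjusted to 5×10^6 CFU/mL in 1% TSB. Incubated 20 h at 37° C. Growth read by absorbance at 595 nm, triplicates.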

S. typhi S5 = format: cell-based, Salmonella typhi; conditions: S5, 20 h
Procedure, shortened: as §1

E. coli D31 = format: cell-based, Escherichia coli; conditions: D31, 20 h
Procedure, shortened: as §1

K. Pneumonia 123132 = test: Growth inhibition assay (MIC); format: cell-based, Klebsiella pneumoniae; conditions: multidrug resistant strain; 1% TSB, 37° C., 20 hrs
Procedure, shortened: as §1

[1] = tested on: K. Pneumonia K6, ATCC 700603; test: Growth inhibition assay (MIC); format: cell-based, Klebsiella pneumoniae; conditions: multidrug resistant strain; 1% TSB, 37° C., 20 hrs
Procedure, shortened: as §1

[2] = tested on: S. enterica subsp. Enterica serovar. typhi G10215 ATCC 700408; format: cell-based, Salmonella enterica; conditions: ATCC 700408, 20 h
Procedure, shortened: as §1

[3] = tested on: R. radiobatter ATCC 15955; test: Growth inhibition assay (MIC); format: cell-based, Rhizobium radiobacter; conditions: multidrug resistant strain; 1% TSB, 37° C., 20 hrs
Description: (§2) The minimal inhibition concentrations (MIC) of the apidaecin-derived peptides and peptide-derivatives were determined by a growth inhibition assay using a serial peptide dilution in sterilized round-bottom 96-well plates (polystyrene, U-bottom, Greiner Bio-One GmbH) with a final volume of 100 μL per well. The bacteria, e.g., E. coli BL21 A1, were grown in nutrient broth (NB, Carl Roth GmbH+Co. KG, Karlsruhe, Germany) at 37° C. over night. To each well of the 96-well plate, 50 μL of the overnight culture adjusted to 5×10^6 CFU/mL in 1% TSB were added. Lyophilized peptides and peptidomimetics were dissolved in 1% TSB (tryptic soy broth) or water to give a final concentration of 250 μg/mL. Fifty μL of the peptide or peptidomimetics solution were added to the first well of a row on the plate and mixed. Fifty μL of the first well containing the peptide solution were transferred to the second well, mixed and again 50 μL transferred to the next well and so on. Thereby, a two-fold dilution series was obtained starting at 250 μg/mL in the first well down to 120 ng/mL in the 12th well of a row giving a final peptide or peptidomimetics concentration from 125 μg/mL (well 1) to 60 ng/mL (well 12). Plates were incubated at 37° C. for 20 hrs. The absorbance was measured at 595 nm using a TECAN micro plate spectrophotometer (Tecan, Germany). All peptides and peptidomimetics were measured in triplicates. Sterilized water was used as a negative control.
The following multidrug resistant bacteria strains were tested: • Eschericha coli 45849 and D31, • Klebsiella pneumoniae 123132 and K6, • Salmonella typhi S5 and Salmonella enterica subsp. enterica serovar Typhimurium (ATCC 700408), • Rhizobium radiobacter (ATCC 15955 deposited as Agrobacterium tumefaciens).

E. coli 10233 = format: cell-based, Escherichia coli
Description: as §2
(§3) The bacteria strains were tested: • Eschericha coli 1103, 10233, BL 21 AI, DC 2, • Klebsiella pneumoniae 681, • Micrococcus luteus ATCC 10240, • Mycobacterium vaccae • Bactillus subtillis 347.

E. coli 1103 = format: cell-based, Escherichia coli
Description: as §2, §3

K. pneumonia 681 = format: cell-based, Klebsiella pneumoniae
Description: as §2, §3

B. subtilis 347 = format: cell-based, Bactillus subtillis
Procedure, shortened: (§4)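 Peptides were serially diluted two-fold in 1% TSB, giving final concentrations from 125 μg/mL down to 60 ng/mL, and mixed with overnight bacterial culture adjusted to 5×10^6 CFU/mL in 1% TSB. After 20 hrs at 37 °C, growth was read as absorbance at 595 nm, in triplicate, with sterile water as negative control.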

E. coli BL 21 AI = test: Growth inhibition assay (MIC); format: cell-based, Escherichia coli; conditions: 1% TSB, 37° C., 20 hrs
Procedure, shortened: as §4

M. luteus ATCC 10240 = format: cell-based, Micrococcus luteus
Procedure, shortened: as §4

in vitro = in vitro ADME, mouse; conditions: 25% aqueous mouse serum, 37° C.; read-out: Half-life time
Description: Serum stability studies were carried out in duplicate as described by Hoffmann et al.. Briefly, 28 μL of an aqueous peptide or peptidomimetics solution (0.5 mg/mL) was added to 0.2 mL freshly pooled 25% mouse serum (Sigma-Aldrich GmbH, Taufkirchen, Germany) in water. The mixtures were incubated at 37° C. under gentle stirring. The proteins were precipitated with 40 μL of 15% aqueous TCA after incubation times of 0, 0.5, 1, 2, 4 and 6 h at 0° C. for 20 min before centrifuged (13500×G) at 4° C. for 5 min. The supernatants of all samples (240 μL) were neutralized with 1 mol/L aqueous NaOH and immediately stored at −20° C. The supernatants were analyzed by RP-HPLC using a linear acetonitrile gradient as described above with 0.1% TFA as ion pair reagent. Collected fractions of the main peaks were further analyzed by tandem mass spectrometry (MALDI-TOF/TOF-MS, 4700 Proteomics Analyzer, Applied Biosystems GmbH, Weiterstadt, Germany) in positive ion reflector mode using α-cyanohydroxycinnamic acid (50% CH3CN in 0.1% aqueous TFA) as matrix to identify the degradation products of the peptides and peptidomimetics, i.e., metabolites, at the different time points. Serum control samples consisted of 200 μL of pooled 25% mouse serum in water, which were also precipitated with 40 μL 15% aqueous TCA, as described before. Peptide reference samples consisted of 28 μL of the peptide stock solution diluted in 0.2 mL water and 40 μL of 15% aqueous trichloroacetic acid (TCA).

Row | Compound | MIC E. coli 45849 (E. coli 45849) [µg/mL] | MIC S. typhi S5 (S. typhi S5) [µg/mL] | MIC E. coli D31 (E. coli D31) [µg/mL] | MIC K. Pneumonia 123132 (K. Pneumonia 123132) [µg/mL] | MIC K. Pneumonia K6, ATCC 700603 [1] [µg/mL] | MIC S. enterica subsp. Enterica serovar. typhi G10215 ATCC 700408 [2] [µg/mL] | MIC R. radiobatter ATCC 15955 [3] [µg/mL] | MIC E. coli 10233 (E. coli 10233; 10233, 20 h) [µg/mL] | MIC E. coli 1103 (E. coli 1103; 1103, 20 h) [µg/mL] | MIC K. pneumonia 681 (K. pneumonia 681; 20 h) [µg/mL] | MIC B. subtilis 347 (B. subtilis 347; 347, 20 h) [µg/mL] | MIC E. coli BL 21 AI (E. coli BL 21 AI) [µg/mL] | MIC M. luteus ATCC 10240 (M. luteus ATCC 10240; ATCC 10240, 20 h) [µg/mL] | half-life (in vitro) [min] | MIC M. luteus ATCC 10240 (M. luteus ATCC 10240; 1% TSB, 37° C., 20 hrs) [µg/mL] | MIC E. coli 10233 (E. coli 10233; 1% TSB, 37° C., 20 hrs) [µg/mL] | MIC E. coli 1103 (E. coli 1103; 1% TSB, 37° C., 20 hrs) [µg/mL] | MIC K. pneumonia 681 (K. pneumonia 681; 1% TSB, 37° C., 20 hrs) [µg/mL] | MIC B. subtilis 347 (B. subtilis 347; 1% TSB, 37° C., 20 hrs) [µg/mL]
1 | CC[C@H](C)[C@H](NC(=O)[C@H](Cc1ccc(O)cc1)NC(=O)[C@@H](NC(=O)[C@@H]1CCCN1C(=O)[C@H](CCCNC(=N)N)NC(=O)[C@H](CC(N)=O)NC(=O)[C@H](CC(N)=O)NC(=O)[C@H](CCCN)NC(C)=O)C(C)C)C(=O)N1CCC[C@H]1C(=O)N[C@@H](CCCNC(=N)N)C(=O)N1C[C@H](O)C[C@H]1C(=O)N[C@@H](CCCNC(=N)N)C(=O)N1CCC[C@H]1C(=O)N1CCC[C@H]1C(=O)N[C@@H](Cc1c[nH]cn1)C(=O)N1CCC[C@H]1C(=O)N[C@@H](CCCNC(=N)N)C(=O)N[C@@H](CC(C)C)C(N)=O [compound 40] (Ac-[Orn]NNRPVYIPR[Hyp]RPPHPRL-NH2) | 1 (≈ 0.444 µM) | <0.5 | 8 (≈ 3.55 µM) | 4 (≈ 1.78 µM) | 16 (≈ 7.11 µM) | 4 (≈ 1.78 µM) | 0.33 (≈ 0.147 µM) | 1.95 (≈ 0.866 µM) | 3.91 (≈ 1.74 µM) | 3.91 (≈ 1.74 µM) | 125 (≈ 55.5 µM) | – | – | – | – | – | – | – | –
2 | CC[C@H](C)[C@H](NC(=O)[C@H](Cc1ccc(O)cc1)NC(=O)[C@@H](NC(=O)[C@@H]1CCCN1C(=O)[C@H](CCCNC(=N)N)NC(=O)[C@H](CC(N)=O)NC(=O)[C@H](CC(N)=O)NC(=O)[C@@H](N)CCCN)C(C)C)C(=O)N1CCC[C@H]1C(=O)N[C@@H](CCCNC(=N)N)C(=O)N1C[C@H](O)C[C@H]1C(=O)N[C@@H](CCCNC(=N)N)C(=O)N1CCC[C@H]1C(=O)N1CCC[C@H]1C(=O)N[C@@H](Cc1c[nH]cn1)C(=O)N1CCC[C@H]1C(=O)N[C@@H](CCCNC(=N)N)C(=O)N[C@@H](CC(C)C)C(N)=O [compound 45] (H-[Orn]NNRPVYIPR[Hyp]RPPHPRL-NH2) | 1 (≈ 0.453 µM) | <0.5 | 8 (≈ 3.62 µM) | 4 (≈ 1.81 µM) | 4 (≈ 1.81 µM) | 2 (≈ 0.906 µM) | 0.65 (≈ 0.294 µM) | 1.95 to 3.91 | 7.81 (≈ 3.54 µM) | 7.81 (≈ 3.54 µM) | 62.5 (≈ 28.3 µM) | – | – | – | – | – | – | – | –
3 | GNNRPVYIPQPRPPHPRL [compound 2] | – | – | 32 | – | 64 | 2 | – | 1.95 | 7.81 | 62.5 | >125 | 0.98 | 31.25 | – | – | – | – | – | –
4 | CC[C@H](C)[C@H](NC(=O)[C@H](Cc1ccc(O)cc1)NC(=O)[C@@H](NC(=O)[C@@H]1CCCN1C(=O)[C@H](CCCNC(=N)N)NC(=O)[C@H](CC(N)=O)NC(=O)[C@H](CC(N)=O)NC(=O)[C@H](CCCN)NC(C)=O)C(C)C)C(=O)N1CCC[C@H]1C(=O)N[C@@H](CCCNC(=N)N)C(=O)N1CCC[C@H]1C(=O)N[C@@H](CCCNC(=N)N)C(=O)N1CCC[C@H]1C(=O)N1CCC[C@H]1C(=O)N[C@@H](Cc1c[nH]cn1)C(=O)N1CCC[C@H]1C(=O)N[C@@H](CCCNC(=N)N)C(=O)N[C@@H](CC(C)C)C(=O)NCC[C@H](NC(=O)[C@H](CC(C)C)NC(=O)[C@H](CCCNC(=N)N)NC(=O)[C@@H]1CCCN1C(=O)[C@H](Cc1c[nH]cn1)NC(=O)[C@@H]1CCCN1C(=O)[C@@H]1CCCN1C(=O)[C@H](CCCNC(=N)N)NC(=O)[C@@H]1CCCN1C(=O)[C@H](CCCNC(=N)N)NC(=O)[C@@H]1CCCN1C(=O)[C@@H](NC(=O)[C@H](Cc1ccc(O)cc1)NC(=O)[C@@H](NC(=O)[C@@H]1CCCN1C(=O)[C@H](CCCNC(=N)N)NC(=O)[C@H](CC(N)=O)NC(=O)[C@H](CC(N)=O)NC(=O)[C@H](CCCN)NC(C)=O)C(C)C)[C@@H](C)CC)C(=O)O [compound 83] (I: Ac-[Orn]NNRPVYIPRPRPPHPRL[Dab]-OH / II: Ac-[Orn]NNRPVYIPRPRPPHPRL; amide I:19-II:C) | 8 (≈ 1.76 µM) | 4 (≈ 0.878 µM) | 2 (≈ 0.439 µM) | 8 (≈ 1.76 µM) | 8 (≈ 1.76 µM) | 4 (≈ 0.878 µM) | – | 31.25 (≈ 6.86 µM) | – | 125 (≈ 27.5 µM) | 15.6 (≈ 3.43 µM) | 1.95 (≈ 0.428 µM) | 1.95 (≈ 0.428 µM) | 15 | – | – | – | – | –
5 | CC[C@H](C)[C@H](NC(=O)[C@H](Cc1ccc(O)cc1)NC(=O)[C@@H](NC(=O)[C@@H]1CCCN1C(=O)[C@H](CCCNC(=N)N)NC(=O)[C@H](CC(N)=O)NC(=O)[C@H](CC(N)=O)NC(=O)CN)C(C)C)C(=O)N1CCC[C@H]1C(=O)N[C@@H](CCC(N)=O)C(=O)N1CCC[C@H]1C(=O)N[C@@H](CCCNC(=N)N)C(=O)N1CCC[C@H]1C(=O)N1CCC[C@H]1C(=O)N[C@@H](Cc1c[nH]cn1)C(=O)N1CCC[C@H]1C(=O)N[C@@H](CCCNC(=N)N)C(=O)N(C)[C@@H](CC(C)C)C(N)=O [compound 33] (H-GNNRPVYIPQPRPPHPR[NMeL]-NH2) | – | – | 32 (≈ 15.1 µM) | – | >128 | 8 (≈ 3.77 µM) | – | 15.63 (≈ 7.37 µM) | 62.5 (≈ 29.5 µM) | >125 | >125 | 15.63 (≈ 7.37 µM) | 31.25 (≈ 14.7 µM) | – | – | – | – | – | –
6 | H-LRPHPPRPQPIYVPRNNG-NH2 [compound 141] | – | – | – | – | – | – | – | >125 | >125 | >125 | >125 | >125 | >125 | – | – | – | – | – | –
7 | 135 (PEG3000-[Orn]NNRPVYIPRPRPPHPRL-NH2) [compound 135] | – | – | – | – | – | – | – | – | – | – | – | >125 | – | – | 8 | >125 | >125 | >125 | >125
